Laboratory results published in patent US20060069132A1, “Azolecarboxamide herbicides” (priority 2004, published 2006).

Columns and labels:
redroot pigweed = experiment: Test A pre-/postemergence herbicide test; assay type: in vivo, Amaranthus retroflexus
Method in brief: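 Seeds sown in sandy loam received a preemergence directed soil spray of compound in non-phytotoxic solvent with surfactant; postemergence plants (2–10 cm, one- to two-leaf stage) were sprayed to runoff at the same time. After ~10 days in greenhouse, injury was rated visually versus untreated controls (0 = no effect, 100 = complete control).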

barnyardgrass = experiment: Test B pre-/postemergence herbicide test; assay type: in vivo, Echinochloa crus-galli; settings: for Plant response rating, Barnyardgrass: preemergence; for Barnyardgrass plant response rating: postemergence, visual rating, scale 0 (no effect) to 100 (complete control)
Method in brief: (§1)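 Greenhouse pot assay with simultaneous preemergence (treated seed) and postemergence (2–18 cm seedlings) applications of surfactant-containing, non-phytotoxic solvent formulations. Response scored visually 13–15 days later on a 0–100 scale, 100 meaning complete control.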

cocklebur = experiment: Test B pre-/postemergence herbicide test; assay type: in vivo, Xanthium strumarium; settings: for Plant response rating, Cocklebur: preemergence; for Cocklebur plant response rating: postemergence, visual rating, scale 0 (no effect) to 100 (complete control)
Method in brief: as §1

bermudagrass = experiment: Test C pre-/postemergence herbicide test; assay type: in vivo, Cynodon dactylon; settings: for Bermudagrass plant response rating: Preemergence, 500 g ai/ha
Method in brief: (§2)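 Seeds were planted and sprayed preemergence with test chemicals in a non-phytotoxic solvent mixture containing surfactant; postemergence treatments went onto plants 2 to 18 cm tall (1- to 4-leaf stage). After 12 to 14 days in a greenhouse, injury was rated visually against untreated controls on a 0–100 scale.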

Surinam grass = experiment: Test C pre-/postemergence herbicide test; assay type: in vivo, Urochloa decumbens; settings: for Surinam Grass plant response rating: 500 g ai/ha
Method in brief: as §2

morningglory = experiment: Test C pre-/postemergence herbicide test; assay type: in vivo, Ipomoea coccinea; parameters: key to Plant response rating, Morningglory: 0 = no effect, 100 = complete control; settings: for Morningglory plant response rating: 500 g ai/ha
Method in brief: as §2

pigweed = experiment: Test C pre-/postemergence herbicide test; assay type: in vivo, Amaranthus retroflexus; settings: for Pigweed plant response rating: 500 g ai/ha
Method in brief: as §2

[1] = Postemergence, 500 g ai/ha, 0 to 100 scale, 0 no effect, 100 complete control
[2] = Postemergence, 2000 g ai/ha, 0 to 100 scale, 0 no effect, 100 complete control
[3] = Preemergence, 2000 g ai/ha, visual rating, 0 to 100 scale (0 no effect, 100 complete control)
[4] = preemergence, 500 g ai/ha, visual injury, 0 to 100 scale (0 no effect, 100 complete control)
[5] = 500 g ai/ha, visual rating 0-100, 0 no effect, 100 complete control
[6] = 125 g ai/ha, 0 to 100 scale, 0 is no effect, 100 is complete control
[7] = 125 g ai/ha, scale 0 (no effect) to 100 (complete control), visual, 12 to 14 days, preemergence
[8] = 250 g ai/ha, scale 0 to 100 (0 no effect, 100 complete control), visual, 12 to 14 days, preemergence
[9] = scale 0 to 100, 0 no effect, 100 complete control
[10] = Preemergence, scale 0 to 100, 0 no effect, 100 complete control
[11] = postemergence, 125 g ai/ha, scale 0 to 100
[12] = postemergence, 62 g ai/ha, scale 0 to 100
[13] = Postemergence, 250 g ai/ha, scale 0 to 100, 0 no effect, 100 complete control
[14] = 62 g ai/ha, preemergence, scale 0 to 100

Compound	Pigweed plant response rating (redroot pigweed; [1])	Plant response rating, Pigweed (redroot pigweed; [2])	Pigweed plant response rating (redroot pigweed; [3])	Pigweed plant response rating (redroot pigweed; [4])	Plant response rating, Barnyardgrass (barnyardgrass; [5])	Barnyardgrass plant response rating (barnyardgrass; 125 g ai/ha)	Barnyardgrass plant response rating (barnyardgrass; 500 g ai/ha)	Plant response rating, Barnyardgrass (barnyardgrass; [6])	Plant response rating, Cocklebur (cocklebur; [5])	Cocklebur plant response rating (cocklebur; 125 g ai/ha)	Cocklebur plant response rating (cocklebur; 500 g ai/ha)	Plant response rating, Cocklebur (cocklebur; [6])	Plant response rating (0 = no effect, 100 = complete control), Bermudagrass (bermudagrass; 62 g ai/ha, preemergence)	Plant response rating, Bermudagrass (bermudagrass; [7])	Plant response rating (0 = no effect, 100 = complete control), Surinam Grass (Surinam grass; 62 g ai/ha, preemergence)	Plant response rating, Surinam Grass (Surinam grass; [7])	Plant response rating (0 = no effect, 100 = complete control), Morningglory (morningglory; 62 g ai/ha, preemergence)	Plant response rating, Morningglory (morningglory; [7])	Plant response rating, Pigweed (pigweed; [7])	Plant response rating, Bermudagrass (bermudagrass; [8])	also measured
CC(=O)c1cccc(NC(=O)c2cc(C(C)(C)C)nn2CCF)c1 [Compound 128]	50	80	95	60	90	20	30	80	20	90	100	20	100	100	30	60	30	30	60	–	Plant response rating, Bermudagrass (bermudagrass; 16 g ai/ha, scale 0 to 100, 0 no effect, 100 complete control, last section of Table C (species set of preemergence test)): 30; Plant response rating, Bermudagrass (bermudagrass; 31 g ai/ha, scale 0 to 100, 0 no effect, 100 complete control, last section of Table C (species set of preemergence test)): 90
CCCCOc1cccc(NC(=O)c2cc(C(C)(C)C)nn2CC)c1 [Compound 137]	90	100	90	60	70	30	40	10	0	50	100	0	50	100	0	10	0	0	100	100	Bermudagrass plant response rating (bermudagrass; [9]): 100; Surinam Grass plant response rating (Surinam grass; [10]): 60; Morningglory plant response rating (morningglory; [10]): 60; Plant response rating (0 = no effect, 100 = complete control), Pigweed (pigweed; 62 g ai/ha, preemergence): 100; Pigweed plant response rating (pigweed; [10]): 100
CCNC(=O)c1cccc(NC(=O)c2cc(C(C)(C)C)nn2CC)n1 [Compound 144]	100	100	100	100	100	70	80	90	20	30	100	10	70	80	20	40	0	30	90	80	Bermudagrass plant response rating (bermudagrass; [9]): 90; Plant response rating, Bermudagrass (bermudagrass; [11]): 0; Plant response rating, Bermudagrass (bermudagrass; [12]): 0; Surinam Grass plant response rating (Surinam grass; Postemergence, scale 0 to 100): 40; Plant response rating, Surinam Grass (Surinam grass; [13]): 40; Surinam Grass plant response rating (Surinam grass; [10]): 70; Plant response rating, Surinam Grass (Surinam grass; [11]): 0; Plant response rating, Surinam Grass (Surinam grass; [12]): 0; Morningglory plant response rating (morningglory; Postemergence, scale 0 to 100): 80; Plant response rating, Morningglory (morningglory; [13]): 20; Morningglory plant response rating (morningglory; [10]): 90; Plant response rating, Morningglory (morningglory; [11]): 0; Plant response rating, Morningglory (morningglory; [12]): 0; Plant response rating (0 = no effect, 100 = complete control), Pigweed (pigweed; 62 g ai/ha, preemergence): 90; Pigweed plant response rating (pigweed; Postemergence, scale 0 to 100): 100; Plant response rating, Pigweed (pigweed; [13]): 100; Pigweed plant response rating (pigweed; [10]): 100; Plant response rating, Pigweed (pigweed; [11]): 100; Plant response rating, Pigweed (pigweed; [12]): 100
C#CCNC(=O)c1cccc(NC(=O)c2cc(C(C)(C)C)nn2CC)n1 [Compound 147]	90	100	100	85	90	20	30	70	10	0	80	0	40	70	0	10	0	0	90	90	Plant response rating, Bermudagrass (bermudagrass; [13]): 70; Bermudagrass plant response rating (bermudagrass; [9]): 95; Surinam Grass plant response rating (Surinam grass; Postemergence, scale 0 to 100): 60; Plant response rating, Surinam Grass (Surinam grass; [13]): 30; Surinam Grass plant response rating (Surinam grass; [10]): 60; Plant response rating, Surinam Grass (Surinam grass; [11]): 0; Plant response rating, Surinam Grass (Surinam grass; [12]): 0; Morningglory plant response rating (morningglory; Postemergence, scale 0 to 100): 0; Plant response rating, Morningglory (morningglory; [13]): 0; Morningglory plant response rating (morningglory; [10]): 0; Plant response rating, Morningglory (morningglory; [11]): 0; Plant response rating, Morningglory (morningglory; [12]): 0; Plant response rating (0 = no effect, 100 = complete control), Pigweed (pigweed; 62 g ai/ha, preemergence): 20; Pigweed plant response rating (pigweed; Postemergence, scale 0 to 100): 100; Plant response rating, Pigweed (pigweed; [13]): 100; Pigweed plant response rating (pigweed; [10]): 100; Plant response rating, Pigweed (pigweed; [11]): 90; Plant response rating, Pigweed (pigweed; [12]): 90
CCN(CC)C(=O)c1ccnc(NC(=O)c2cc(C(C)(C)C)nn2CC)c1 [Compound 153]	95	100	100	100	90	30	30	60	0	50	100	0	–	95	–	0	–	0	100	95	Plant response rating, Bermudagrass (bermudagrass; 62 g ai/ha, preemergence, scale 0 to 100, 0 no effect, 100 complete control): 70; Bermudagrass plant response rating (bermudagrass; [9]): 100; Plant response rating, Surinam Grass (Surinam grass; [14]): 0; Surinam Grass plant response rating (Surinam grass; [10]): 100; Plant response rating, Morningglory (morningglory; [14]): 0; Morningglory plant response rating (morningglory; [10]): 15; Plant response rating, Pigweed (pigweed; [14]): 95; Pigweed plant response rating (pigweed; [10]): 100
